Assay results reported in patent US6402037B1, “Two-photon upconverting dyes and applications” (The Research Foundation of State University of New York, priority 1995, dated 2002).
Blank lines part the entries; values can stand above or below the compound they belong to.

How the values were obtained:
[1] = Decomposition temperature (Td) by DSC thermogram; type: physicochemical; conditions: DSC under nitrogen
Experimental: Decomposition temperature (“Td”) of each dye was measured by differential scanning calorimetry (“DSC”) thermogram using a Shimadzu DSC-50GPC under nitrogen. Elemental: analysis were performed by Atlantic Microlab, Inc., P.O. Box 2288, Norcross, Ga. 30019. Proton NMR spectra, TV/visible absorption spectra, and UV/visible emission spectra were recorded using a Varian Gemini-300 300 MHz spectrometer, a Shimazdu UV-3101 PC spectrophotometer, and a Shimazdu RF5000U spectrofluorophotometer, respectively: TV/visible absorption spectra of dyes prepared in these Examples in DMF, are provided in FIG. 3.

[2] = Energy transfer measurement (fluorescence of ASPS and TPPS in D2O)
Experimental: An experiment based on the fluorescence emission of porphyrin and ASPS was conducted to show energy transfer from the dye to the porphyrin. D2O solutions of the ASPS and TPPS were mixed in different concentrations in a quartz cuvette and placed in the sample compartment of a spectrofluorophotometer. […] The beam energy used in this experiment was approximately 50 mJ in a beam having a 4 mm diameter. […] The porphyrin without the ASPS was also irradiated with the IR laser light to determine any possible contributions from the porphyrin due to two-photon excitation. […] ASPS and TPPS solutions were mixed together and a series of spectra were collected to determine dependence of fluorescence emission spectrum on the concentration of the different molecular species.

[3] = Two-photon pumped cavity lasing of APSS solution filled hollow fiber (800 nm pump)
From the text: As a comparison, the absorption spectrum of 1 mm-path length pure solvent (DMSO) is also provided. There is a strong absorption band around 400 nm due to APSS dye, and the solution is transparent in the 570˜1100 nm spectral range. However, the two-photon energy of ˜800 nm IR radiation falls into the strong absorption band. Therefore, an effective TPA process is expected by ˜800 nm excitation. […] The same effect is expected with increased path length of the solution sample with a given concentration.
The input 800 nm pump IR laser beam was provided by a pulsed dye laser pumped with a Q-switched and frequency-doubled Nd: YAG laser source. The beam size, pulse duration, angular divergence, and repetition rate of the input pump laser radiation were ˜3 mm, ˜5 ns, ˜1 mrad, and 1-10 Hz, respectively. The pump beam was focused by a 4×-microscope objective into the input end of a 15-cm long hollow quartz fiber filled with APSS, prepared as described in Example 16, in DMSO (do=0.012 M). […] Under the excitation of the input 800 nm pump beam, a strong TPA induced green fluorescence emission was seen from the hollow fiber. […]
The spectral intensity distribution of two-photon pumped cavity lasing from the above system is shown in FIG. 16 (dashed curve) at a pump energy level of Eo=290 μJ. For comparison, the one photon (at 400 nm) induced fluorescence spectrum of the same dye solution with the same concentration is also shown in FIG. 16 (solid curve). The bandwidth of cavity lasing was much narrower than the bandwidth of corresponding one-photon induced fluorescence emission without using any intracavity dispersion element. […] Therefore, the blue-side and central range of the fluorescence band would be expected to be more difficult to lase.
The measured single-pulse waveform was recorded by using a fast photodiode detector in conjunction with a 350 MHz oscilloscope (Tektronix 2467 with C1001 video camera). […] At a pump level of ˜150 μJ, the measured one-pass two-photon absorption in the 15 cm-long dye solution filled hollow fiber sample was only about ˜25%. […]

- Decomposition temperature (Td) [1]: 241 °C
- two-photon induced fluorescence emission peak ([2]; 1060 nm excitation): 610 nm
Compound: trans-4-[p-(-ethyl-N-hydroxyethylamino)styryl]-N-butansulfonpyridinum [dye4]

- central wavelength of one-photon fluorescence band ([3]; DMSO 0.012 M, 400 nm excitation): ~520 nm
- strong linear absorption band ([3]; DMSO solution, 1 mm path): around 400 nm
- transparent spectral range ([3]; DMSO solution, 1 mm path): 570˜1100 nm
Compound: CN(CCO)c1ccc(C=Cc2ccc(S(=O)(=O)CCCCCCO)cc2)cc1 [APSS]

- emission peak in mixture with ASPS ([2]; 1060 nm excitation): 653 nm
- emission peak ([2]; excited at 610 nm): 650 nm
Compound: O=S(=O)(O)c1ccc(-c2c3nc(c(-c4ccc(S(=O)(=O)O)cc4)c4ccc([nH]4)c(-c4ccc(S(=O)(=O)O)cc4)c4nc(c(-c5ccc(S(=O)(=O)O)cc5)c5ccc2[nH]5)C=C4)C=C3)cc1 [TPPS, meso tetra(p-sulfonaphenyl)porphyrin]
